From patent publication US20190085289A1, “COMPOSITIONS AND METHODS FOR PATHOGEN INACTIVATION OF PLATELETS” (Cerus Corporation, priority 2017, published 2019)

Key:
[1] = Stability of S-59 in InterSol PAS protected from ambient light (HPLC); type: physicochemical; settings: S-59 230 μM in InterSol PAS, room temp, protected from light
Procedure: Additional studies evaluated stability of the S-59 (amotosalen) pathogen inactivation compound formulated in a platelet additive solution (PAS), but protected from ambient light exposure. A 230 μM solution of S-59 was prepared in the commercially available PAS solution InterSol® (Fenwal Inc.) and maintained at room temperature protected from ambient light conditions. HPLC analysis was performed on samples at times listed in Table 2 for both S-59 and photoproducts.

[2] = Stability of S-59 in InterSol PAS under ambient light (HPLC); type: physicochemical; settings: S-59 230 μM in InterSol PAS, room temp
Procedure: Initial studies evaluated stability of the pathogen inactivation compound amotosalen (S-59) that was formulated in a platelet additive solution (PAS). A 230 μM solution of psoralen compound S-59 (Irsch et al., Transfus Med Hemother, 38: 19-31 (2011)) was prepared in the commercially available PAS solution InterSol® (Fenwal Inc.) and maintained at room temperature under ambient light conditions. HPLC analysis was performed on samples at times listed in Table 1 for both S-59 and photoproducts. […] S-59 data are shown as both concentration (μM), as well as peak area (S-59 UV) for relative comparison to any photoproducts detected with HPLC (Table 1). Peak D and Peak E photoproducts also were observed by 22 hr and 72 hr, respectively, as well as process impurity decomposition product 4′-HMT, with peak area values indicated (Table 1).

Cc1oc2c(C)c3oc(=O)cc(C)c3cc2c1CO [4′-HMT]
4′-HMT UV peak area (HPLC) ([1]; 5.5 hr): 3.7162
4′-HMT UV peak area (HPLC) ([1]; 21.5 hr): 4.3525
4′-HMT UV peak area (HPLC) ([1]; 28.5 hr): 3.8628
4′-HMT UV peak area (HPLC) ([1]; 44 hr): 4.0199
4′-HMT UV peak area (HPLC) ([1]; 45.5 hr): 4.4036
4′-HMT UV peak area (HPLC) ([1]; 53 hr): 4.0582
4′-HMT UV peak area (HPLC) ([1]; 77 hr): 4.4268
4′-HMT UV peak area (HPLC) ([1]; T 0): 3.8849
4′-HMT UV peak area (HPLC) ([2]; 5 hr): 5.624
4′-HMT UV peak area (HPLC) ([2]; 6 hr): 5.090
4′-HMT UV peak area (HPLC) ([2]; 22 hr): 5.125
4′-HMT UV peak area (HPLC) ([2]; 30 hr): 5.334
4′-HMT UV peak area (HPLC) ([2]; 47 hr): 4.954
4′-HMT UV peak area (HPLC) ([2]; 56 hr): 4.742
4′-HMT UV peak area (HPLC) ([2]; 72 hr): 4.839
4′-HMT UV peak area (HPLC) ([2]; 78 hr): 4.793
4′-HMT UV peak area (HPLC) ([2]; T 0): 4.924
